The source of these data is patent publication US11731946B2, “Broad spectrum antivirulence, anti-persistence compounds” (priority 2017, dated 2023).

The subject of the assay is PA14. Kind of assay: Mouse thigh infection model (PA14). The format is in vivo, mice. The following applies: 10 mg/kg SC; CFUs 24 h post-infection. The procedure:
Mice were infected with 5×10^5 and 5×10^6 PA14 cells for the thigh and lung infection model respectively. FIGS. 5A-5C: Thigh model: treatment was initiated […] and repeated at 4, 8, 12 and 18 hours. FIG. 5A: monotherapy with Compound 72, 10 mg/kg (P<0.05 Mann Whitney test); FIG. 5B-5C. Combinatorial: Compound 72 (10 mg/kg) plus Ciprofloxacin 1 mg/kg (subtherapeutic dose) (FIG. 5B: P<0.05; Figure C: P>0.05; Mann Whitney test). CFUs were assessed 24 h post-infection in the thigh (FIG. 5A), liver (FIG. 5B) and spleen (FIG. 5C). Compound 72 was administered subcutaneously and ciprofloxacin intraperitoneally (IP). […] Mice were infected with 5×10^6 PA14 cells lung infection model. Compound 54 (10 mg/kg) plus ciprofloxacin 1 mg/kg treatment (subtherapeutic dose) was initiated at 2 h post-infection and repeated at 6, 12, and 18 h post-infection. CFUs were assessed 24 h post-infection in the lung. Compound 54 was administered subcutaneously and ciprofloxacin intraperitoneally (IP).
Thigh infection studies were performed using Compounds 54 and 72.

`N#Cc1ccc(NC(=O)CC(=O)Nc2ccc(Br)cc2)cc1` [Compound 54]: the “bacterial CFUs at the site of infection” value was “reduced bacterial CFUs”.
